Results from the supplement of paper PMC5908809.

Experiments:
SNK-6 (IL-2 2.5 ng/mL) [1] = assay: percent inhibition of viability; higher = more inhibition; conditions: 72 h
YT (IL-2 2.5 ng/mL) [2] = assay: as above; conditions: 72 h
[3] = test system: normal primary NK cells, pool 1 (3 donors) (IL-2 2.5 ng/mL); assay: as above; conditions: 72 h
[4] = test system: normal primary NK cells, pool 1 (3 donors), resting (IL-2 0 ng/mL); assay: as above; conditions: 72 h
[5] = test system: normal primary NK cells, pool 2 (3 donors) (IL-2 2.5 ng/mL); assay: as above; conditions: 72 h
[6] = test system: normal primary NK cells, pool 3 (3 donors) (IL-2 2.5 ng/mL); assay: as above; conditions: 72 h
[7] = test system: normal NK cells expanded with K562-aAPC; assay: drug sensitivity score (DSS) (DSS units); higher = more sensitive; extreme values may be limits of the assay; conditions: 72 h; IL-2 2.5 ng/mL
Protocol: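 Drug sensitivity and resistance testing on K562-aAPC-expanded normal NK cells: 5 concentrations (10-fold steps over a 10,000-fold range), 72 h at 37 °C, viability by CellTiter-Glo normalised to DMSO and benzethonium chloride controls; DSS from the fitted curve.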

DERL-7 (IL-2 2.5 ng/mL) = assay: as above; conditions: 72 h
IMC-1 (IL-2 20 ng/mL) = assay: as above; conditions: 72 h
KAI3 (IL-2 2.5 ng/mL) = assay: as above; conditions: 72 h
KHYG-1 (IL-2 2.5 ng/mL) = assay: as above; conditions: 72 h
NK-92 (IL-2 2.5 ng/mL) = assay: as above; conditions: 72 h
NK-YS (IL-2 2.5 ng/mL) = assay: as above; conditions: 72 h
NKL (IL-2 2.5 ng/mL) = assay: as above; conditions: 72 h
SNK-6 (IL-2 2.5 ng/mL) [8] = assay: as above; conditions: 72 h
YT (IL-2 2.5 ng/mL) [9] = assay: as above; conditions: 72 h
[10] = test system: normal primary NK cells, pool 1 (3 donors) (IL-2 2.5 ng/mL); assay: as above; conditions: 72 h
[11] = test system: normal primary NK cells, pool 1 (3 donors), resting (IL-2 0 ng/mL); assay: as above; conditions: 72 h
[12] = test system: normal primary NK cells, pool 2 (3 donors) (IL-2 2.5 ng/mL); assay: as above; conditions: 72 h
[13] = test system: normal primary NK cells, pool 3 (3 donors) (IL-2 2.5 ng/mL); assay: as above; conditions: 72 h
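For percent inhibition of viability in this document: normalised to DMSO-only wells as negative and benzethonium chloride as positive control.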

S=P(N1CC1)(N1CC1)N1CC1 [Thio-TEPA] (max concentration tested 50000 nM)
percent inhibition of viability [%]
Conditions	SNK-6 (IL-2 2.5 ng/mL) [1]	YT (IL-2 2.5 ng/mL) [2]	[3]	[4]	[5]	[6]
5 nM	–	-4.88	0.27	-8.22	-1.52	-5.53
50 nM	–	-5.74	11.7	7.58	9.19	7.66
500 nM	-4.8	1.43	6.98	6.34	11.7	3.04
5000 nM	-5.86	6.47	8.81	14.9	8.43	4.82
50000 nM	41.2	8.31	2.16	17.1	19.8	3.08

Conditions	drug sensitivity score
DERL-7 (IL-2 2.5 ng/mL)	0
IMC-1 (IL-2 20 ng/mL)	0
KAI3 (IL-2 2.5 ng/mL)	8.32
KHYG-1 (IL-2 2.5 ng/mL)	0
NK-92 (IL-2 2.5 ng/mL)	5.84
NK-YS (IL-2 2.5 ng/mL)	1.65
NKL (IL-2 2.5 ng/mL)	8.54
SNK-6 (IL-2 2.5 ng/mL) [8]	1.69
YT (IL-2 2.5 ng/mL) [9]	0
[7]	0
[10]	0
[11]	1.68
[12]	1.52
[13]	0
